Test results: patent publication US10731222B2 (RNA Diagnostics Inc., priority 2013, dated 2020)

How the values were obtained:
[1] = test system: Colon adenocarcinoma cells LS174T; test: RNA disruption in colon adenocarcinoma cells LS174T; assay type: cell-based; conditions: 24 hr
Protocol: Colon adenocarcinoma cells LS174T were incubated with Sunitinib, a receptor tyrosine kinase inhibitor. RNA was isolated from the cells and analyzed using an Agilent Bioanalyzer.
RNA was isolated from the cells and analyzed using an Agilent Bioanalyzer.

[2] = test system: locally advanced breast cancer; test: ATP content of tumour biopsies (ATPlite luminescence), Group 1; assay type: in vivo, human; conditions: tru-cut after ZA; 230.93 at incisional biopsy; 24 matched pairs; p=0.79
Protocol: ATP content was assayed as previously described using a luminescence assay system (ATPlite, PerkinElmer) according to manufacturing instructions. Briefly, frozen tumor biopsies were minced and homogenized in ice-cold lysis solution provided with the kit using a homogenizer. Membranes and cellular debris were eliminated by centrifuging at 12,000×g for 10 min at 4° C. Protein concentrations were determined by DC protein-assay (Bio-Rad Laboratories). Equal amounts of tissue proteins from each sample (30 μg/50 μl of lysis solution) were incubated with 50 μl of luciferine/luciferase substrate solution and analyzed for ATP content by using a Luminescence Counter (Enspire, PerkinElemer). ATP concentrations were calculated on the basis of an ATP standard-curve and expressed as pmol/mg protein.

[3] = test system: breast cancer T2-4, N 0-1, M0; test: Early response studies: RNA Disruption (RDI) 15 days after initiation of therapy; assay type: in vivo, human
Description: The Limit of Detection for RDI s RDI=0.3. RDI=1.5, 5 times the Level of Detection, was used as a provisional baseline cut off between nonresponders and responders.

[4] = test system: circulating tumour cells (CTCs); test: Circulating tumor cells (CTCs) assay, CellSearch, Group 2; assay type: in vivo, human; conditions: for median CTC/M30+ve: basal 2
Protocol: (§1) Patients received a single dose of 4 mg diluted in 100 ml saline, intravenously, in about 15 mins of ZA without any other active concomitant treatments (i.e chemotherapy or endocrine therapy) (Groups 1 and 2). In patients with locally advanced disease, the biological evaluations were performed at baseline on the diagnostic biopsy and repeated after 14 days from ZA administration on a second tru-cut biopsy (Group 1) whereas in patients with bone metastatic disease, CTCs counts along with serological markers were performed before ZA administration, at 48 hours and at 14 days after treatment (Group 2) (FIG. 9).
The enumeration of CTC in whole blood was done by the CellSearch System according to manufacturers instruction as described by Cristofanilli et al.. The identification and count of CTCs was performed using the CellSearch Analyzer, a semi-automated fluorescence-based microscopy system that permits computer-generated reconstruction of cellular images. The criteria used are round or oval morphology, a DAPI positivity, positivity for cytokeratin and negative staining for CD45. Results are expressed as number of cells/7.5 ml of blood. Quality control was maintained via the CellSearch CTC Control Kit used to standardize reagents, instruments, and operator technique.
To quantify the fraction of apoptotic CTC, M30-positive CTC were detected integrating CTC assay with a specific mAb (M30 PEVIVA AB, Bromma, Sweden), recognizing the M30 neoepitope of cytokeratin 18 (CK18), analyzed with the fourth filter of the CellSearch System; results were expressed as the total number of CTC and M30-positive CTC per 7.5 mL of blood as described elsewhere.

[5] = test system: cytokeratin 18 (M30, M65); test: M30/M65 Apoptosense assay, Group 2; assay type: in vivo, human; conditions: 14 days after ZA; baseline 335.3 U/L; p=0.039
Protocol: Blood samples were collected from patients at the same time-point as indicated for Group 2 into the K2EDTA anticoagulant tubes, and then centrifuged at 1,500 g for 10 min to obtain plasma. Levels of M30 and M65 were measured in blood samples drawn at 8 am before starting ZA administration and thereafter at 48 hours and at 14 days after the initial treatment (FIG. 9).
M30 and M65 measurements were tested in triplicate accordingly to the manufacturers' instructions (PEVIVA AB, Bromma, Sweden) as previously described in detail.
The M30 is a biomarker assay for the quantitative determination of caspase-cleaved cytokeratin 18 (CK18) released from apoptotic carcinoma cells into blood and may estimate the tumour response to the treatment. Total CK18 (cleaved and non cleaved) is detected by M65. The levels of M30 and M65 were determined on blood samples of metastatic breast cancer patients (Group 2) collected at baseline, at 48 hours and at 14 days after ZA administration at the same time point of CTCs evaluation to assess apoptosis and cell death induced by the treatment. […] M65 levels were statistically significant higher after drug administration (14 days) when compared to the baseline (370.69 U/L versus 335.3 U/L; range 174.2-1646.5 versus 113.7-596.4; p=0.039).

[6] = cited from earlier work
[7] = Treatment tolerability of single-dose ZA; assay type: in vivo, human
Protocol: as §1
Patients were evaluated by physical examination, and blood samples were obtained for laboratory analysis.

[8] = test system: locally advanced breast cancer; test: Immunohistochemistry of tumour markers (Ki67, CD31, p53, bcl-2, caspase 3) before and 14 days after single-dose ZA, Group 1; assay type: in vivo, human
Protocol: Enrolled patients received 4 mg single dose of ZA (Zometa®, Novartis, Milan, Italy) before starting any treatment (biological window of 14 days) (FIG. 9). Markers of tumor proliferation/death were tested immunohistochemically and at ATP and RNA level in tumour specimens obtained before and after ZA administration in those patients with locally advanced breast cancer (Group 1) and the count of circulating tumour cells (CTCs) by CellSearch System along with serological markers as marker of tumor dissemination were carried out in metastatic patients (Group 2).
as §1, with “In” for “Patients received a single dose of 4 mg diluted in 100 ml saline, intravenously, in about 15 mins of ZA without any other active concomitant treatments (i.e chemotherapy or endocrine therapy) (Groups 1 and 2). In”
Immunohistochemical evaluation was performed on formalin-fixed paraffin-embedded tumor samples obtained at diagnosis and at 14th days on tru-cut. ER, PgR, overexpression of HER2 and Ki67, CD31 with p53 and bcl-2 staining were performed at the Pathology Unit of the Azienda Ospedaliera-Istituti Ospitalieri of Cremona (Italy). The immunohistochemical methodology is fully described elsewhere. The Caspase 3 immunohistochemistry was performed at the Pathology Unit of Peter MacCallum Cancer Centre (Australia); the used methodology followed that reported by others evaluating protein expression in breast tumours.

[9] = test system: locally advanced breast cancer; test: RNA Disruption Index (RDI) of tumour samples before and 14 days after ZA, Group 1; assay type: in vivo, human; conditions: 14 days after single ZA; baseline 0.63; 14 matched pairs; p<0.0076
Protocol: Tumour samples were shipped in a RNA preservative to Rna Diagnostics (Sudbury, Canada) where they were sub-sectioned to reduce the amount of tissue for RNA isolation based on gross pathology. RNA was then isolated using the Qiagen miRNeasy kit from each portion of the tumour and the RNA analysed using an Agilent Bioanalyzer 2100. […] Mean RDI values were calculated for each tumour sample.

[10] = test system: A2780 ovarian cancer cells; test: RNA disruption in drug-treated A2780 cells (Agilent Bioanalyzer electropherogram, RDI); assay type: cell-based, human; conditions: for response of cells in culture to the agent: dose- and time-dependent; for effect of caspase inhibitor on docetaxel-induced RNA disruption: 10 uM inhibitor with 0.2 uM docetaxel
Protocol: RNA was isolated from ovarian cancer cell line A2780 cells which had been treated with 10 μM docetaxel in 50% media or 20 μM epirubicin, each in 50% media. Cells were treated with the chemotherapeutic for 24 hours at 37° C. Isolated RNA was separated by microcapillary electrophoresis using the Agilent 2100 Bioanalyzer.
Cells were plated and treated with docetaxel concentrations ranging from 0.001-40 μM for 24 to 72 hours to assess the effect on cell number, RNA content, and integrity (measured using a Bioanalyzer 2100 from Agilent Technologies, Inc.).
A2780 cells treated for up to 72 hours with docetaxel at 0.005 uM and 0.2 uM, were analyzed for the amount of RNA per cell. RNA was isolated and electophoretically separated using an Agilent Bioanalyzer.
RNA was isolated and electrophoretically separated on an Agilent Bioanalyzer. As shown in FIG. 24D bands appeared just below the 28S (e.g. intermediate) and 18S bands (e.g. low banding region) at 0.005 uM and peaked at 0.2 uM.
A time course experiment was conducted in A2780 cells. Cells were treated for up to 72 hours with docetaxel at 0.005 uM and 0.2 uM. RNA was isolated and run on an Agilent Bioanalyzer.
The effect of a caspase inhibitor on RNA integrity changes was next assessed. Cells were treated with or without docetaxel at a concentration of 0.2 uM in the presence or absence of the caspase inhibitor Q-DEVD-OPH (Biovision Laboratories) at a concentration of 10 uM.

[11] = test system: Colon adenocarcinoma cells SW480; test: RNA disruption in colon adenocarcinoma cells SW480; assay type: cell-based; conditions: 72 hr
Protocol: Colon adenocarcinoma cells SW480 were incubated with Epirubicin, a DNA synthesis inhibitor. RNA was isolated from the cells and analyzed using an Agilent Bioanalyzer.

[12] = test system: docetaxel-resistant A2780DXL cells; test: Clonogenic assay, docetaxel-resistant cells; assay type: cell-based; conditions: clonogenic assay
Description: (§2) A docetaxel A2780 resistant cell line was made as described in Li et al., Int. J. Mol. Med 2004 14(20): 257-264.
RDA like clonogenic assays can be used to identify drugs that are cytotoxic (FIG. 24C iv). […] The cell lines have widely differing sensitivity to docetaxel in a clonogenic assay, with IC50 values differing by over three orders of magnitude.

[13] = test system: docetaxel-resistant A2780DXL cells; test: RNA disruption in docetaxel-resistant cells; assay type: cell-based; conditions: in combination with docetaxel
Protocol: as §2
A time course experiment was conducted. Sensitive parental and docetaxel resistant A2780 cells were treated with docetaxel for 24 hours. RNA was isolated and run on an Agilent Bioanalyzer.
The a\Ability of RDA to detect potentiators of docetaxel (Dxl) sensitivity. […] Thus, RDA may be used to screen for potentiators of chemotherapy drug cytotoxicity.

**Q.** Which “concentration at which RNA Disruption is evident” value [1] does the source give for CCN(CC)CCNC(=O)c1c(C)[nH]c(/C=C2\C(=O)Nc3ccc(F)cc32)c1C [Sunitinib] here?
**A.** 54 mM

**Q.** Which “average ATP value” [2] does the source give for O=P(O)(O)C(O)(Cn1ccnc1)P(=O)(O)O [ZA, zoledronic acid] here?
**A.** 216.57 pmol/mg protein

**Q.** What about the “Patients Responding (RDI above Baseline RDI = 1.5)” value [3] of the same compound?
**A.** 8 patients

**Q.** And the “RDI Range, Responding Patients” value [3]?
**A.** 1.8-8.9

**Q.** And the “median alive CTC” value ([4]; 48 hours after ZA infusion, basal 12, p=0.0012)?
**A.** 4 cells/7.5 ml of blood

**Q.** What about the “median CTC/M30+ve” value ([4]; 48 hours, p=0.7065) of the same compound?
**A.** 2 cells/7.5 ml of blood

**Q.** And the “median CTC/M30+ve” value ([4]; 14 days, p=0.018)?
**A.** 3 cells/7.5 ml of blood

**Q.** And the M65 level [5]?
**A.** 370.69 U/L

**Q.** And the “plasma concentration relative to Cmax” value ([6]; 24 h post-dose)?
**A.** < 1 % of Cmax

**Q.** And the “dose retained in the skeleton or in fat tissue” value ([6]; in vivo)?
**A.** 60%

**Q.** And the “dose excreted unmetabolized in the urine” value ([6]; within 24 hours after administration)?
**A.** up to 41%

**Q.** And the “levels of bone-turnover markers (calcium, PTH, BALP, VIT-D3(1-25))” value ([7]; in vivo)?
**A.** did not lead significant difference

**Q.** And the “osteonecrosis of the jaw or other significant adverse events” value ([7]; in vivo)?
**A.** No patient developed

**Q.** And the tolerability ([7]; single 4 mg i.v. dose)?
**A.** well tolerated

**Q.** And the “mean serum creatinine level” value ([7]; with treatment)?
**A.** did not vary

**Q.** What about the “specimens with increased bcl-2” value ([8]; 1 of 31) of the same compound?
**A.** 3.2%

**Q.** What about the “specimens with increased p53” value ([8]; 1 of 31) of the same compound?
**A.** 3.2%

**Q.** What about the “specimens with decreased p53” value ([8]; 3 of 31) of the same compound?
**A.** 9.7%

**Q.** What about the “patients with stable Ki67 expression” value ([8]; 5 of 33 patients, 14 days) of the same compound?
**A.** 15.2%

**Q.** And the “patients with increase in Ki67 expression” value ([8]; 6 of 33 patients, 14 days)?
**A.** 18.2%

**Q.** And the “patients with decrease in Ki67 expression” value ([8]; 22 of 33 patients, 14 days)?
**A.** 66.6%

**Q.** What about the “specimens with unchanged p53” value ([8]; 27 of 31) of the same compound?
**A.** 87.1%

**Q.** What about the “specimens with decreased bcl-2” value ([8]; 30 of 31) of the same compound?
**A.** 96.8%

**Q.** And the “median Ki67” value ([8]; 14 days after ZA infusion, basal 18%, n=33, p=0.0032)?
**A.** 16%

**Q.** And the “bcl-2 expression (median)” value ([8]; 14 days, baseline 100%, p<0.00001)?
**A.** 40%

**Q.** And the “median CD31 expression” value ([8]; after treatment (14 days), basal 27%, p=0.0001)?
**A.** 16%

**Q.** And the RDI level [9]?
**A.** 1.21

**Q.** For N.N.O=C([O-])C1(C(=O)[O-])CCC1.[Pt+2] [carboplatin], which “response of cells in culture to the agent” value [10] is on record?
**A.** RNA disruption

**Q.** What does the source list for COc1cccc2c1C(=O)c1c(O)c3c(c(O)c1C2=O)C[C@@](O)(C(=O)CO)C[C@@H]3O[C@H]1C[C@H](N)[C@@H](O)[C@H](C)O1 [epirubicin]?
**A.** electropherogram pattern ([10]; 20 μM in 50% media, 24 hours, 37° C.): intermediate bands between the 18S and 28S peaks; response of cells in culture to the agent [10]: RNA disruption; concentration at which RNA Disruption is evident [11]: 0.5 mM

**Q.** With CC(=O)O[C@H]1C(=O)[C@@]2(C)[C@H]([C@H](OC(=O)c3ccccc3)[C@]3(O)C[C@H](OC(=O)[C@H](O)[C@@H](NC(=O)c4ccccc4)c4ccccc4)C(C)=C1C3(C)C)[C@]1(OC(C)=O)CO[C@@H]1C[C@@H]2O [paclitaxel] as the compound, how does the “response of cells in culture to the agent” value [10] read?
**A.** RNA disruption

**Q.** Which “effect on docetaxel sensitivity” value [12] does the source give for Cyclosporine A here?
**A.** restores sensitivity to docetaxel

**Q.** And the “effect on docetaxel-induced RNA disruption (RDI)” value [13]?
**A.** restored docetaxel's ability to induce RNA disruption

**Q.** What does the source list for Q-DEVD-OPH?
**A.** effect of caspase inhibitor on docetaxel-induced RNA disruption [10]: reduces the loss of 28S and 18S bands at 72 hr; effect of caspase inhibitor on docetaxel-induced RNA disruption ([10]; listed as Q-DEVD-Oph): significantly reduced RNA disruption
